Active and inactive are the calls of the source. No cut-off for these calls is given here. Where a SMILES comes first, the peptide text is derived from it. [ ]: non-standard residue; d: D form. The star is where a group is joined. Dolaproine = CO[C@@H]([C@@H]1CCCN1)[C@@H](C)C(=O)O; Dil = CC[C@H](C)[C@H](NC)[C@@H](CC(=O)O)OC; X1 = C[C@@H](N*)[C@@H](O)c1ccccc1; NMeV = CN[C@H](C(=O)O)C(C)C
What was measured:
[1] = test system: LNCaP C4-2B; assay: Anticancer activity against PSMA positive human LNCaP C4-2B cells assessed as reduction in cell viability incubated for 72 hrs by CellTiter-Glo Luminescent Cell Viability assay; type: functional, cell-based; conditions: dose […]
[2] = test system: LNCaP C4-2B; assay: Anticancer activity against PSMA positive human LNCaP C4-2B cells assessed as cell viability at 100 nM incubated for 72 hrs by CellTiter-Glo Luminescent Cell Viability assay relative to control; type: functional; conditions: read-out: Activity
[3] = Anticancer activity against PMSA positive human PC3-PIP cells assessed as cell viability at 10 nM incubated for 72 hrs by CellTiter-Glo Luminescent Cell Viability assay relative to control; type: functional; conditions: read-out: Activity
[4] = test system: PC3-PIP cell; assay: Anticancer activity against PSMA positive human PC3-PIP cells assessed as reduction in cell viability incubated for 72 hrs by CellTiter-Glo Luminescent Cell Viability assay; type: functional, cell-based; conditions: dose 4-100 µM
[5] = test system: LNCaP C4-2B; assay: Anticancer activity against PSMA positive human LNCaP C4-2B cells assessed as cell viability at 20 nM incubated for 72 hrs by CellTiter-Glo Luminescent Cell Viability assay relative to control; type: functional; conditions: read-out: Activity
[6] = test system: PC-3; assay: Anticancer activity against PMSA negative human PC-3 cells assessed as reduction in cell viability at 10 nM incubated for 72 hrs by CellTiter-Glo Luminescent Cell Viability assay; type: functional, cell-based
[7] = test system: LNCaP C4-2B; assay: Anticancer activity against PSMA positive human LNCaP C4-2B cells assessed as cell viability at 10 nM incubated for 72 hrs by CellTiter-Glo Luminescent Cell Viability assay relative to control; type: functional; conditions: read-out: Activity
[8] = test system: PC-3; assay: Anticancer activity against PMSA negative human PC-3 cells assessed as cell viability at 10 nM incubated for 72 hrs by CellTiter-Glo Luminescent Cell Viability assay relative to control; type: functional; conditions: read-out: Activity
[9] = Anticancer activity against PSMA positive human PC3-PIP cells assessed as cell viability at 4 nM incubated for 72 hrs by CellTiter-Glo Luminescent Cell Viability assay relative to control; type: functional; conditions: read-out: Activity
[10] = Anticancer activity against PSMA positive human PC3-PIP cells assessed as cell viability at 100 nM incubated for 72 hrs by CellTiter-Glo Luminescent Cell Viability assay relative to control; type: functional; conditions: read-out: Activity
[11] = test system: LNCaP C4-2B; assay: Anticancer activity against PSMA positive human LNCaP C4-2B cells assessed as reduction in cell viability at 10 nM incubated for 72 hrs by CellTiter-Glo Luminescent Cell Viability assay; type: functional, cell-based

SMILES | Activity [1] | viability at 0.1 µM [2] [%] | viability at 0.01 µM [3] [%] | Activity [4] | viability at 0.02 µM [5] [%] | Activity [6] | viability at 0.01 µM [7] [%] | viability at 0.01 µM [8] [%] | viability at 0.004 µM [9] [%] | viability at 0.1 µM [10] [%] | Activity [11]
CC[C@H](C)[C@@H]([C@@H](CC(=O)N1CCC[C@H]1[C@H](OC)[C@@H](C)C(=O)N[C@H](C)[C@@H](O)c1ccccc1)OC)N(C)C(=O)[C@@H](NC(=O)[C@H](C(C)C)N(C)C(=O)OCc1ccc(OC(=O)N(C)CCN(C)P(=O)(O)OCC[C@H](NC(=O)c2ccc(Cn3nnc4c3-c3ccccc3N(C(=O)CCC(=O)NCCOCCOCCOCCOCCC(=O)NCCCCCC(=O)N[C@@H](CCC(=O)N[C@@H](CCCOP(=O)(O)N[C@@H](CCC(=O)O)C(=O)O)C(=O)O)C(=O)O)c3ccccc3-4)cc2)C(=O)O)cc1)C(C)C | Dose-Dependent Effect | 7.44 | 47.2 | Dose-Dependent Effect | 28.7 | inactive | 58.8 | – | – | – | –
CC[C@H](C)[C@@H]([C@@H](CC(=O)N1CCC[C@H]1[C@H](OC)[C@@H](C)C(=O)N[C@H](C)[C@@H](O)c1ccccc1)OC)N(C)C(=O)[C@@H](NC(=O)[C@@H](NC)C(C)C)C(C)C (H-[NMeV]V[Dil][Dolaproine]-X1) | – | – | < 50 | – | – | – | < 50 | < 50 | – | – | –
CC[C@H](C)[C@@H]([C@@H](CC(=O)N1CCC[C@H]1[C@H](OC)[C@@H](C)C(=O)N[C@H](C)[C@@H](O)c1ccccc1)OC)N(C)C(=O)[C@@H](NC(=O)[C@H](C(C)C)N(C)C(=O)OCc1ccc(NC(=O)[C@H](CCCNC(N)=O)NC(=O)[C@@H](NC(=O)c2ccc(Cn3nnc4c3-c3ccccc3N(C(=O)CCC(=O)NCCOCCOCCOCCOCCC(=O)NCCCCCC(=O)N[C@@H](CCC(=O)N[C@@H](CCCOP(=O)(O)N[C@@H](CCC(=O)O)C(=O)O)C(=O)O)C(=O)O)c3ccccc3-4)cc2)C(C)C)cc1)C(C)C | – | – | < 50 | – | – | inactive | – | – | 80.9 | 25.8 | inactive

From ChEMBL document CHEMBL5375980, “PSMA-targeted small-molecule drug-conjugates with valine-citrulline and phosphoramidate cleavable linkers” (Bioorg Med Chem Lett, 2024)
